Reference: patent publication US20130216666A1, “CASHEW NUT SHELL LIQUID WITH IMPROVED STABILITY” (IDEMITSU KOSAN CO., LTD., priority 2010, published 2013)
Like-named read-outs stand apart in the source and are kept apart here.

Legend:
[1] = 80° C.; for inhibition of the decarboxylation: a day
Procedure: The EDTA was prepared as a 10% aqueous solution for the addition.
Samples were taken from the beakers after a day and analyzed for composition by HPLC.

[2] = Inhibition of decarboxylation reaction when organic acid chelating agent was added (HPLC); format: physicochemical; settings: 80° C.
[3] = 1% by weight in unheated CNSL, Day 0
[4] = 1% by weight in unheated CNSL, Day 1
[5] = 5% by weight in unheated CNSL, Day 0
[6] = 5% by weight in unheated CNSL, Day 1
[7] = 2% by weight in unheated CNSL, Day 0
[8] = 2% by weight in unheated CNSL, Day 6
[9] = 10% by weight in unheated CNSL, Day 0
[10] = 10% by weight in unheated CNSL, Day 6

O=C(O)CN(CCN(CC(=O)O)CC(=O)O)CC(=O)O [EDTA, ethylenediamine tetraacetic acid]
Anacardic Acid 15:1 Composition (%) [1, 3]: 35.11% | Anacardic Acid 15:1 concentration [1, 3]: 107.38 ppm | Anacardic Acid 15:2 Composition (%) [1, 3]: 14.05% | Anacardic Acid 15:2 concentration [1, 3]: 42.98 ppm | Anacardic Acid 15:3 Composition (%) [1, 3]: 33.26% | Anacardic Acid 15:3 concentration [1, 3]: 101.71 ppm | Cardanol 15:1 Composition (%) [1, 3]: 7.60% | Cardanol 15:1 concentration [1, 3]: 23.26 ppm | Cardanol 15:2 Composition (%) [1, 3]: 3.09% | Cardanol 15:2 concentration [1, 3]: 9.45 ppm | Cardanol 15:3 Composition (%) [1, 3]: 6.88% | Cardanol 15:3 concentration [1, 3]: 21.05 ppm | Anacardic Acid 15:1 Composition (%) [1, 4]: 27.63% | Anacardic Acid 15:1 concentration [1, 4]: 61.63 ppm | Anacardic Acid 15:2 Composition (%) [1, 4]: 11.56% | Anacardic Acid 15:2 concentration [1, 4]: 25.79 ppm | Anacardic Acid 15:3 Composition (%) [1, 4]: 26.75% | Anacardic Acid 15:3 concentration [1, 4]: 59.67 ppm | Cardanol 15:1 Composition (%) [1, 4]: 15.11% | Cardanol 15:1 concentration [1, 4]: 33.70 ppm | Cardanol 15:2 Composition (%) [1, 4]: 5.60% | Cardanol 15:2 concentration [1, 4]: 12.49 ppm | Cardanol 15:3 Composition (%) [1, 4]: 13.34% | Cardanol 15:3 concentration [1, 4]: 29.75 ppm | inhibition of the decarboxylation ([1]; 1% by weight): moderate inhibition | Anacardic Acid 15:1 Composition (%) [1, 5]: 35.11% | Anacardic Acid 15:1 concentration [1, 5]: 107.38 ppm | Anacardic Acid 15:2 Composition (%) [1, 5]: 14.05% | Anacardic Acid 15:2 concentration [1, 5]: 42.98 ppm | Anacardic Acid 15:3 Composition (%) [1, 5]: 33.26% | Anacardic Acid 15:3 concentration [1, 5]: 101.71 ppm | Cardanol 15:1 Composition (%) [1, 5]: 7.60% | Cardanol 15:1 concentration [1, 5]: 23.26 ppm | Cardanol 15:2 Composition (%) [1, 5]: 3.09% | Cardanol 15:2 concentration [1, 5]: 9.45 ppm | Cardanol 15:3 Composition (%) [1, 5]: 6.88% | Cardanol 15:3 concentration [1, 5]: 21.05 ppm | Anacardic Acid 15:1 Composition (%) [1, 6]: 29.16% | Anacardic Acid 15:1 concentration [1, 6]: 101.34 ppm | Anacardic Acid 15:2 Composition (%) [1, 6]: 11.39% | Anacardic Acid 15:2 concentration [1, 6]: 39.59 ppm | Anacardic Acid 15:3 Composition (%) [1, 6]: 27.51% | Anacardic Acid 15:3 concentration [1, 6]: 95.61 ppm | Cardanol 15:1 Composition (%) [1, 6]: 14.21% | Cardanol 15:1 concentration [1, 6]: 49.37 ppm | Cardanol 15:2 Composition (%) [1, 6]: 5.34% | Cardanol 15:2 concentration [1, 6]: 18.56 ppm | Cardanol 15:3 Composition (%) [1, 6]: 12.39% | Cardanol 15:3 concentration [1, 6]: 43.07 ppm | inhibition of the decarboxylation ([1]; 5% by weight): significant inhibition

O=C(O)CC(O)C(=O)O (centres unmarked) [Malic Acid, malic acid]
Anacardic Acid 15:1 Composition (%) [2, 7]: 39.93% | Anacardic Acid 15:1 concentration [2, 7]: 321.20 ppm | Anacardic Acid 15:2 Composition (%) [2, 7]: 14.22% | Anacardic Acid 15:2 concentration [2, 7]: 114.37 ppm | Anacardic Acid 15:3 Composition (%) [2, 7]: 33.03% | Anacardic Acid 15:3 concentration [2, 7]: 265.67 ppm | Cardanol 15:1 Composition (%) [2, 7]: 5.30% | Cardanol 15:1 concentration [2, 7]: 42.62 ppm | Cardanol 15:2 Composition (%) [2, 7]: 2.27% | Cardanol 15:2 concentration [2, 7]: 18.28 ppm | Cardanol 15:3 Composition (%) [2, 7]: 5.26% | Cardanol 15:3 concentration [2, 7]: 42.29 ppm | Anacardic Acid 15:1 Composition (%) [2, 8]: 30.38% | Anacardic Acid 15:1 concentration [2, 8]: 258.72 ppm | Anacardic Acid 15:2 Composition (%) [2, 8]: 10.45% | Anacardic Acid 15:2 concentration [2, 8]: 88.98 ppm | Anacardic Acid 15:3 Composition (%) [2, 8]: 24.29% | Anacardic Acid 15:3 concentration [2, 8]: 206.87 ppm | Cardanol 15:1 Composition (%) [2, 8]: 15.35% | Cardanol 15:1 concentration [2, 8]: 130.72 ppm | Cardanol 15:2 Composition (%) [2, 8]: 5.81% | Cardanol 15:2 concentration [2, 8]: 49.51 ppm | Cardanol 15:3 Composition (%) [2, 8]: 13.71% | Cardanol 15:3 concentration [2, 8]: 116.77 ppm | Anacardic Acid 15:1 Composition (%) [2, 9]: 39.28% | Anacardic Acid 15:1 concentration [2, 9]: 270.21 ppm | Anacardic Acid 15:2 Composition (%) [2, 9]: 14.28% | Anacardic Acid 15:2 concentration [2, 9]: 98.21 ppm | Anacardic Acid 15:3 Composition (%) [2, 9]: 33.24% | Anacardic Acid 15:3 concentration [2, 9]: 228.68 ppm | Cardanol 15:1 Composition (%) [2, 9]: 5.47% | Cardanol 15:1 concentration [2, 9]: 37.65 ppm | Cardanol 15:2 Composition (%) [2, 9]: 2.39% | Cardanol 15:2 concentration [2, 9]: 16.44 ppm | Cardanol 15:3 Composition (%) [2, 9]: 5.33% | Cardanol 15:3 concentration [2, 9]: 36.70 ppm | Anacardic Acid 15:1 Composition (%) [2, 10]: 37.43% | Anacardic Acid 15:1 concentration [2, 10]: 229.25 ppm | Anacardic Acid 15:2 Composition (%) [2, 10]: 13.73% | Anacardic Acid 15:2 concentration [2, 10]: 84.08 ppm | Anacardic Acid 15:3 Composition (%) [2, 10]: 31.28% | Anacardic Acid 15:3 concentration [2, 10]: 191.59 ppm | Cardanol 15:1 Composition (%) [2, 10]: 7.28% | Cardanol 15:1 concentration [2, 10]: 44.57 ppm | Cardanol 15:2 Composition (%) [2, 10]: 3.41% | Cardanol 15:2 concentration [2, 10]: 20.90 ppm | Cardanol 15:3 Composition (%) [2, 10]: 6.87% | Cardanol 15:3 concentration [2, 10]: 42.08 ppm

O=C(O)C(O)C(O)C(=O)O (centres unmarked) [Tartaric Acid, tartaric acid]
Anacardic Acid 15:1 Composition (%) [2, 7]: 42.00% | Anacardic Acid 15:1 concentration [2, 7]: 351.16 ppm | Anacardic Acid 15:2 Composition (%) [2, 7]: 13.27% | Anacardic Acid 15:2 concentration [2, 7]: 110.99 ppm | Anacardic Acid 15:3 Composition (%) [2, 7]: 31.29% | Anacardic Acid 15:3 concentration [2, 7]: 261.63 ppm | Cardanol 15:1 Composition (%) [2, 7]: 5.69% | Cardanol 15:1 concentration [2, 7]: 47.57 ppm | Cardanol 15:2 Composition (%) [2, 7]: 2.50% | Cardanol 15:2 concentration [2, 7]: 20.90 ppm | Cardanol 15:3 Composition (%) [2, 7]: 5.25% | Cardanol 15:3 concentration [2, 7]: 43.86 ppm | Anacardic Acid 15:1 Composition (%) [2, 8]: 30.33% | Anacardic Acid 15:1 concentration [2, 8]: 272.03 ppm | Anacardic Acid 15:2 Composition (%) [2, 8]: 10.57% | Anacardic Acid 15:2 concentration [2, 8]: 94.78 ppm | Anacardic Acid 15:3 Composition (%) [2, 8]: 24.25% | Anacardic Acid 15:3 concentration [2, 8]: 217.48 ppm | Cardanol 15:1 Composition (%) [2, 8]: 15.59% | Cardanol 15:1 concentration [2, 8]: 139.84 ppm | Cardanol 15:2 Composition (%) [2, 8]: 5.66% | Cardanol 15:2 concentration [2, 8]: 50.74 ppm | Cardanol 15:3 Composition (%) [2, 8]: 13.62% | Cardanol 15:3 concentration [2, 8]: 122.16 ppm | Anacardic Acid 15:1 Composition (%) [2, 9]: 39.70% | Anacardic Acid 15:1 concentration [2, 9]: 250.76 ppm | Anacardic Acid 15:2 Composition (%) [2, 9]: 14.24% | Anacardic Acid 15:2 concentration [2, 9]: 89.95 ppm | Anacardic Acid 15:3 Composition (%) [2, 9]: 32.59% | Anacardic Acid 15:3 concentration [2, 9]: 205.85 ppm | Cardanol 15:1 Composition (%) [2, 9]: 5.45% | Cardanol 15:1 concentration [2, 9]: 34.40 ppm | Cardanol 15:2 Composition (%) [2, 9]: 2.70% | Cardanol 15:2 concentration [2, 9]: 17.07 ppm | Cardanol 15:3 Composition (%) [2, 9]: 5.31% | Cardanol 15:3 concentration [2, 9]: 33.53 ppm | Anacardic Acid 15:1 Composition (%) [2, 10]: 39.12% | Anacardic Acid 15:1 concentration [2, 10]: 267.36 ppm | Anacardic Acid 15:2 Composition (%) [2, 10]: 13.52% | Anacardic Acid 15:2 concentration [2, 10]: 92.36 ppm | Anacardic Acid 15:3 Composition (%) [2, 10]: 31.14% | Anacardic Acid 15:3 concentration [2, 10]: 212.78 ppm | Cardanol 15:1 Composition (%) [2, 10]: 6.81% | Cardanol 15:1 concentration [2, 10]: 46.56 ppm | Cardanol 15:2 Composition (%) [2, 10]: 3.24% | Cardanol 15:2 concentration [2, 10]: 22.13 ppm | Cardanol 15:3 Composition (%) [2, 10]: 6.17% | Cardanol 15:3 concentration [2, 10]: 42.19 ppm
